# Data reported in US12201626B2, “Bifunctional compositions for the treatment of cancer” (ARMACEUTICA, INC., priority 2018, dated 2025).
# Key:
# [1] = test system: HL-60 cells; experiment: Differential Nuclear Staining (DNS) cytotoxicity assay; assay type: cell-based
# Description: (§1) In this study, 19 human cell lines were utilized: seven breast human cancer; MDA-MB-468, MCF-7, T47D, HCC1419, HCC70, MDA-MB-231 (triple negative) and its lung metastatic (LM) derivative MDA-MB-231 LM2; four human leukemia/lymphoma cells, HL-60, Ramos, Jurkat and CEM, three human ovarian cancer, Ovcar 8, Ovcar 5 and Ovcar 3, one lung cancer, one melanoma and one pancreatic cell line, A549, A375, Panc-1 respectively. Furthermore, for selectivity/comparative purposes, the cell lines from the non-cancerous origin, MCF-10A, HS-27 were also included. The culture media used for MDA-MB-231, MDA-MB-231 LM2, MDA-MB-468, MCF-7, A549, A375, Panc-1, and HS-27 was DMEM (Hyclone, Logan UT), whereas for T47D, HCC-1419, HCC-70, HL-60, Ramos, Jurkat, CEM, Ovcar 8 and Ovcar 5 was RPMI-1640 (Hyclone, Logan UT). Consistently, both DMEM and RPMI culture media was supplemented with 10% heat-inactivated fetal bovine serum (FBS: Hyclone), 100 U/ml penicillin and 100 μg/ml streptomycin (Thermo Fisher Scientific Inc., Rockford, IL). The MCF-10A cells were grown in DMEM/F12 supplemented with 10% FBS, 10 μg/ml recombinant human insulin (Sigma), 0.5 μg/ml hydrocortisone (Sigma), 20 ng/ml epidermal growth factor, 2.5 mM L-glutamine, 100 U/ml penicillin, and 100 μg/ml streptomycin. Also, a slight modification of the culture media to the HL-60 and Ovcar 3 cell lines was that 20% of FBS was added to the media (ATCC, Manassas, VA, USA). In addition, Ovcar 3 cells required 10 μg/ml recombinant human insulin (Sigma). The adherent cells, growing in the logarithmic growth phase at a 60-75% confluence, were detached by utilizing a HyQtase enzyme (Thermo Fisher Scientific Inc.), counted and seeded in 96-well plates at 10,000 cells density in 100 μL of culture medium per well. Cells growing in suspension were processed similarly as described above except for the addition of HyQtase. Typically, the incubation conditions of all the cells were at 37° C. in a 5% CO2 humidified atmosphere.
# (§2) To analyze the potential cytotoxic activity of PND, the Differential Nuclear Staining (DNS) assay, which was validated for high-throughput screening (HTS) using live-cell bio-imaging was utilized. For this assay, cells were seeded at 10,000 cells/well density in a 96-well plate in 100 μl of culture media, incubated overnight, and treated with a gradient of PND concentrations for 72 h. Two hours before imaging, two fluorescent nucleic acid intercalators were added to each well, Hoechst 33342 and propidium iodide (PI; Invitrogen); at a final concentration of 1 μg/ml each. Due to its high permeability, Hoechst stains all of the cells (total dead and alive), whereas PI only stains dead or dying cells. Montages of 2 by 2 images were captured directly from each individual well of the culture plates by using a multi-well plate reader IN Cell 2000 analyzer, an HTS and high-content analysis (HCA) system (GE Healthcare Life Sciences, Pittsburgh, PA). The following controls were included in every single plate: PBS as solvent/vehicle control, hydrogen peroxide as a positive control for cytotoxicity, and untreated cells to determine the background of toxicity due to cell manipulation and intrinsic factors usually associated with the culture protocol. Each experimental data point, as well as controls, were assessed in triplicates. Cytotoxic concentration 50% (CC50) values were calculated based on a linear interpolation equation. CC50 is defined as the PND concentration required to disrupt the plasma membrane integrity of 50% of the cell population, as compared with solvent-treated cells.
# (§3) The selective cytotoxicity index (SCI) denotes the capability of a given experimental compound to kill cancer cells more efficiently while inflicting minimal toxicity to non-cancerous origin cells. Thus, the SCI for PND was calculated as follow: SCI=CC50 of non-cancerous cells/CC50 of cancer cells.
# [2] = test system: MDA-MB-231 cells; experiment: as above; assay type: cell-based
# Description: as §1, §2, §3
# [3] = test system: MDA-MB-231 LM2-LUC4 metastatic breast cancer cells; experiment: Metastatic breast cancer tumours in mice, daily gavage; assay type: in vivo
# Experimental: Treatment began when tumors reached 150-300 mm^3 in size (i.e. Day 1).
# In the PND-treated group (n=6), all 6 mice were given 160 mg/kg from Day 1 to Day 9. PND-treated mice numbers 2, 4, and 5 received 160 mg/kg for the entire study, while PND-treated mice numbers 1, 3, and 6 had the largest tumors in the group on Day 9, and had their doses increased on Day 10 to 240 mg/kg, and again on Day 13 to 320 mg/kg. The control mice (n=6) were given placebo throughout the study. The size of each tumor was measured daily. The protocol's endpoint was when a tumor reached 1500 mm^3 in size, triggering the euthanization of the mouse. For the analysis, the level of significance was set at P<0.05.
# [4] = test system: malignancy that was metastatic or unresectable; experiment: Open-label dose-escalating study of oral PND in terminally-ill human cancer patients
# Experimental: An open-label, dose-escalating study was conducted to assess the longevity and safety of oral pyronaridine tetraphosphate (PND) in five terminally-ill human patients with selected cancers. […] Exclusion criteria included active clinically significant infection, uncontrolled intercurrent illness, neutropenia, and pregnancy.
# The PND was obtained from Mangalam Drugs and Organics, Ltd, and the powered PND was encapsulated in size “00” gelatin capsules for oral administration.
# Patient were instructed to escalate his or her dose if there was no unacceptable toxicity. […] Study Arm 2 started with a daily dose of 200 mg for 2 weeks, then 400 mg for 2 weeks, then 600 mg onwards. Due to ethical concerns of treating terminally-ill patients, there was no placebo group.
# The primary outcomes assessed was the difference between the patient's expected survival length estimated at the time of study entry (estimated at 2-4 weeks for each patient) and his or her actual survival length. The secondary outcomes were malignancy-associated symptom relief, anti-tumor activity, safety, and tolerability of PND.
smiles,measurement,setting,value
"COC1=CC=C2Nc3cc(Cl)ccc3C(N=C3C=C(CN4CCCC4)C(=O)C(CN4CCCC4)=C3)=C2N1 [PND, 4-[(7-chloro-2-methoxy-1,5-dihydrobenzo[b][1,5]naphthyridin-10-yl)imino]-2,6-bis(pyrrolidin-1-ylmethyl)cyclohexa-2,5-dien-1-one]",selective cytotoxicity index (SCI),[1],> 3
same,CC50,"[1]; Homo sapiens, 72 h, DNS assay",1900 nM
same,selective cytotoxicity index (SCI),[2]; CC50 of non-cancerous MCF-10A / CC50 of MDA-MB-231,4.13
same,CC50,"[2]; Homo sapiens, MDA-MB-231, 72 h, DNS assay",1600 nM
same,average tumor size,"[3]; 160 mg/kg daily gavage, Day 1 to 9, control 750 mm^3, P 0.01",430 mm^3
same,"PND accumulation on dissection (stomach, intestines, liver)",[3]; 6 PND-treated mice dissected,no sign of PND accumulation
same,adverse events,[3]; 160-320 mg/kg daily gavage,no reports of negative adverse events except discomfort in walking after Day 15
same,length of survival versus placebo,[3]; 160-320 mg/kg daily gavage,significant difference in lengths of survival favoring the PND-treated group
same,"weight, eating, grooming",[3]; 160-320 mg/kg daily gavage,"no weight loss, no eating disorders, or grooming issues"
same,tumor size versus placebo,"[3]; Day 1 to 15, P 0.0001",tumors had grown larger in the placebo group than in the PND-treated group
same,pigmentation at about Day 20,[3]; all 6 PND-treated mice,"yellowing in the eyes, skin, ears, and paws"
same,most recent CBC and CMP results,[4]; Case 1,within normal reference ranges
same,study-drug related adverse events,"[4]; Case 1, hilar cholangiocarcinoma",no reports of any study-drug related adverse events
same,survival status,"[4]; Case 1, June 2019, start 20 Dec. 2018, expected survival 2-4 weeks",still alive
same,study-drug related adverse events,"[4]; Case 2, lung cancer stage IV",no reports of study-drug related adverse events
same,survival status,"[4]; Case 2, start 22 Jan. 2019",passed away on 22 Feb. 2019
same,study-drug related adverse events,"[4]; Case 3, ovarian cancer stage IV",no reports of study-drug related adverse events
same,survival status,"[4]; Case 3, start 15 Jan. 2019",passed away on 29 Jan. 2019
same,survival status,"[4]; Case 4, breast cancer stage IV, start 20 Jan. 2019",passed away on 15 Feb. 2019
same,most recent CBC and CMP results,[4]; Case 5,within normal reference ranges
same,study-drug related adverse events,"[4]; Case 5, small cell lung cancer stage IV, cleared within a week",irritation on the skin during the first week of treatment
same,survival status,"[4]; Case 5, June 2019, start 29 Jan. 2019",still alive
same,maximum tolerated dose,"[4]; any patient, up to 500 or 600 mg daily",not reached
same,tolerability,"[4]; five patients, 200-600 mg daily oral",well tolerated
